Measured values: patent publication US11781160B2, “Methods for the production of methacrylates” (priority 2018, dated 2023)

What was measured:
[1] = system: E. coli MG1655; experiment: Growth in MSX medium with 20% (v/v) BMA, wild type; format: cell-based, Escherichia coli
[2] = system: gene transcription in strain 18; experiment: Transcriptome analysis with added BMA, strain 18
Protocol: (§1) Transcriptome analysis was carried out to characterize transcriptional activity in mutant microorganisms using standard methods.
(§2) Sample Preparation • 1) Streak strains onto fresh MSX agar (15 g/L) plates directly from the cryostocks and incubate overnight at 37° C. • 2) Isolate single colonies and inoculate pre-cultures in MSX, using 50 ml shake flasks. Incubate overnight at 37° C. and 250 rpm. • 3) Inoculate cultures in MSX to an initial OD600 of 0.05, using 250 mL pyrex shake flasks with 24/29 neck join. Incubate at 37° C. and 250 rpm. Do 4 biological replicates (3 replicates for sequencing plus one backup)—4 flasks per strain. • 4) Seal shake flasks with sterile Suba seals. To monitor OD, take samples using a sterile syringe and needle after first swabbing the Suba seals with 70% ethanol. Monitor OD. • 5) When OD reaches 0.3, collect first sample for RNA extraction (“before” sample) into a pre-chilled falcon. Keep samples on ice. • 6) Immediately after, add 20% (v/v) BMA. Re-incubate cultures. • 7) Quickly process the samples according to the RNeasy kit protocol, until step 6 of protocol 1. Always keep samples on ice and store it at −80° C. until further use, if possible, flash freeze in liquid nitrogen it before storing. • 8) One hour after the first sample collection/BMA addition, collect the second sample for RNA extraction (“after” sample). Proceed as explained before. • 9) Continue to monitor the OD until the cultures reach 24 h. • To summarise, each strain tested will have 6 samples to send for sequencing, 3 collected right before the addition and 3 collected one hour after, plus 1 “back-up” for before and after, in case something goes wrong during extraction (8 samples total). Besides the WT strain with the addition of BMA, samples were also collected from a WT culture with no BMA, one hour after reaching OD of 0.3, as a control.
(§3) Transcription was compared for a double mutant and the wild-type in the presence and absence of BMA relative to the level in the wild type in the absence of BMA. For the avoidance of doubt the level in the table is the ratio of the level in the strain under the BMA exposure relative to the level in the wild type in the absence of added BMA.

[3] = system: gene transcription in strain 21; experiment: Transcriptome analysis with added BMA, strain 21
Protocol: as §1, §2, §3

[4] = system: gene transcription in double mutant; experiment: Transcriptome analysis with added BMA, double mutant
Protocol: as §1, §2, §3

[5] = system: E. coli BW25113 isolate 8-rob(R156H) rpoB(T1037P) torY(A87T) acrR(49Yfs); experiment: Growth kinetics of isolated strain 8 with 20% v/v BMA
[6] = system: E. coli BW25113 isolate 20-marR(V84G) rpoC(R1075C) ompR(R15S) acrR(indels); experiment: Growth kinetics of isolated strain 20 with 20% v/v BMA
[7] = system: E. coli BW25113 isolate 21-marR(V84G) rpoC(R1075C) rpoC(A787V) ompR(R15S) acrB(V901l) acrR(indels); experiment: Growth kinetics of isolated strain 21 with 20% v/v BMA
[8] = system: E. coli BW 25113; experiment: Growth of E. coli BW25113 (wild type) with BMA in M9 minimal medium
[9] = BMA concentration increased further to 20% v/v
[10] = Wild Type, 0.05% BMA (v/v), Table 2.2
[11] = Wild Type, 0.1% BMA (v/v), Table 2.2

C=C(C)C(=O)OCCCC [BMA, butyl 2-methylprop-2-enoate]
Growth in the presence of BMA ([1]; 20% (v/v) BMA added immediately after inoculation, WT): unable to grow | Time after which growth was observed ([1]; MSX medium containing 20% (v/v) BMA, 30 mL vials, 37° C., 250 rpm): 72 h | IdhA transcription level relative to wild type without BMA [2]: 56.74 | acrA transcription level relative to wild type without BMA [2]: 6.47 | acrB transcription level relative to wild type without BMA [2]: 10.12 | adiY transcription level relative to wild type without BMA [2]: 21.13 | ariR transcription level relative to wild type without BMA [2]: 25.19 | asr transcription level relative to wild type without BMA [2]: 74.22 | bssR transcription level relative to wild type without BMA [2]: 134.14 | ibpA transcription level relative to wild type without BMA [2]: 74.55 | ibpB transcription level relative to wild type without BMA [2]: 158.35 | narG transcription level relative to wild type without BMA [2]: 25.46 | nirB transcription level relative to wild type without BMA [2]: 23.98 | nirD transcription level relative to wild type without BMA [2]: 34.98 | pspA transcription level relative to wild type without BMA [2]: 20.71 | pspB transcription level relative to wild type without BMA [2]: 20.94 | pspD transcription level relative to wild type without BMA [2]: 18.60 | pspc transcription level relative to wild type without BMA [2]: 21.37 | raiA transcription level relative to wild type without BMA [2]: 44.16 | rmf transcription level relative to wild type without BMA [2]: 20.96 | soxS transcription level relative to wild type without BMA [2]: 1.17 | spy transcription level relative to wild type without BMA [2]: 4.36 | ybfA transcription level relative to wild type without BMA [2]: 24.95 | ybhG transcription level relative to wild type without BMA [2]: 18.85 | ybiH transcription level relative to wild type without BMA [2]: 12.75 | ydgU transcription level relative to wild type without BMA [2]: 28.47 | yhjx transcription level relative to wild type without BMA [2]: 251.44 | yibT transcription level relative to wild type without BMA [2]: 83.81 | ymgA transcription level relative to wild type without BMA [2]: 11.97 | ymgC transcription level relative to wild type without BMA [2]: 12.62 | ynfM transcription level relative to wild type without BMA [2]: 55.40 | yohk transcription level relative to wild type without BMA [2]: 14.54 | IdhA transcription level relative to wild type without BMA [3]: 20.48 | acrA transcription level relative to wild type without BMA [3]: 5.63 | acrB transcription level relative to wild type without BMA [3]: 8.93 | adiY transcription level relative to wild type without BMA [3]: 10.74 | ariR transcription level relative to wild type without BMA [3]: 6.13 | asr transcription level relative to wild type without BMA [3]: 11.63 | bssR transcription level relative to wild type without BMA [3]: 198.48 | ibpA transcription level relative to wild type without BMA [3]: 29.21 | ibpB transcription level relative to wild type without BMA [3]: 30.97 | narG transcription level relative to wild type without BMA [3]: 65.34 | nirB transcription level relative to wild type without BMA [3]: 39.43 | nirD transcription level relative to wild type without BMA [3]: 42.50 | pspA transcription level relative to wild type without BMA [3]: 21.16 | pspB transcription level relative to wild type without BMA [3]: 14.98 | pspD transcription level relative to wild type without BMA [3]: 14.80 | pspc transcription level relative to wild type without BMA [3]: 14.67 | raiA transcription level relative to wild type without BMA [3]: 22.55 | rmf transcription level relative to wild type without BMA [3]: 36.77 | soxS transcription level relative to wild type without BMA [3]: 1.08 | spy transcription level relative to wild type without BMA [3]: 1.77 | ybfA transcription level relative to wild type without BMA [3]: 33.06 | ybhG transcription level relative to wild type without BMA [3]: 9.26 | ybiH transcription level relative to wild type without BMA [3]: 7.20 | ydgU transcription level relative to wild type without BMA [3]: 6.39 | yhjx transcription level relative to wild type without BMA [3]: 3.11 | yibT transcription level relative to wild type without BMA [3]: 95.47 | ymgA transcription level relative to wild type without BMA [3]: 2.43 | ymgC transcription level relative to wild type without BMA [3]: 1.53 | ynfM transcription level relative to wild type without BMA [3]: 65.39 | yohk transcription level relative to wild type without BMA [3]: 7.09 | acrA transcription level relative to wild type without BMA ([4]; LM double mutant): 5.13 | acrB transcription level relative to wild type without BMA ([4]; LM double mutant): 4.99 | IdhA transcription level relative to wild type without BMA ([4]; double mutant): 30.42 | adiY transcription level relative to wild type without BMA ([4]; double mutant): 10.80 | ariR transcription level relative to wild type without BMA ([4]; double mutant): 8.91 | asr transcription level relative to wild type without BMA ([4]; double mutant): 711.06 | bssR transcription level relative to wild type without BMA ([4]; double mutant): 5.47 | ibpA transcription level relative to wild type without BMA ([4]; double mutant): 80.35 | ibpB transcription level relative to wild type without BMA ([4]; double mutant): 672.54 | narG transcription level relative to wild type without BMA ([4]; double mutant): 3.23 | nirB transcription level relative to wild type without BMA ([4]; double mutant): 3.28 | nirD transcription level relative to wild type without BMA ([4]; double mutant): 3.57 | pspA transcription level relative to wild type without BMA ([4]; double mutant): 27.60 | pspB transcription level relative to wild type without BMA ([4]; double mutant): 11.73 | pspD transcription level relative to wild type without BMA ([4]; double mutant): 10.00 | pspc transcription level relative to wild type without BMA ([4]; double mutant): 11.09 | raiA transcription level relative to wild type without BMA ([4]; double mutant): 36.36 | rmf transcription level relative to wild type without BMA ([4]; double mutant): 17.63 | soxS transcription level relative to wild type without BMA ([4]; double mutant): 20.93 | spy transcription level relative to wild type without BMA ([4]; double mutant): 99.47 | ybfA transcription level relative to wild type without BMA ([4]; double mutant): 59.92 | ybhG transcription level relative to wild type without BMA ([4]; double mutant): 10.78 | ybiH transcription level relative to wild type without BMA ([4]; double mutant): 7.73 | ydgU transcription level relative to wild type without BMA ([4]; double mutant): 188.87 | yhjx transcription level relative to wild type without BMA ([4]; double mutant): 2.32 | yibT transcription level relative to wild type without BMA ([4]; double mutant): 43.57 | ymgA transcription level relative to wild type without BMA ([4]; double mutant): 9.97 | ymgC transcription level relative to wild type without BMA ([4]; double mutant): 11.68 | ynfM transcription level relative to wild type without BMA ([4]; double mutant): 29.92 | yohk transcription level relative to wild type without BMA ([4]; double mutant): 19.51 | Growth rate [5]: 0.712 ± 0.015 h⁻¹ | Lag time [5]: 5 h | Max cell concentration [5]: 0.435 ± 0.010 g/L | Growth rate [6]: 0.719 ± 0.041 h⁻¹ | Lag time [6]: 5 h | Max cell concentration [6]: 0.589 ± 0.012 g/L | Growth rate [7]: 0.703 ± 0.030 h⁻¹ | Lag time [7]: 5 h | Max cell concentration [7]: 0.438 ± 0.022 g/L | Growth rate ([8]; 0.01% v/v BMA): 0.617 ± 0.009 h⁻¹ | Lag phase ([8]; 0.01% v/v BMA): 2 h | Max cell concentration ([8]; 0.01% v/v BMA): 1.365 ± 0.120 g/L | Growth rate ([8]; 0.05% v/v BMA): 0.517 ± 0.014 h⁻¹ | Lag phase ([8]; 0.05% v/v BMA): 4 h | Max cell concentration ([8]; 0.05% v/v BMA): 1.269 ± 0.074 g/L | Growth rate ([8]; 0.1% v/v BMA): 0.519 ± 0.010 h⁻¹ | Lag phase ([8]; 0.1% v/v BMA): 12 h | Max cell concentration ([8]; 0.1% v/v BMA): 1.335 ± 0.074 g/L | Consistency of growth [8, 9]: growth was inconsistent | Incubation time after which cell growth was observed [8, 9]: 24 to 36 h | BMA concentration that inhibits the growth of E. coli ([8]; M9 minimal medium, 37° C.): above 0.05 % v/v | Growth rate [8, 10]: 0.517 ± 0.014 h⁻¹ | Lag time [8, 10]: 4 h | Max cell concentration [8, 10]: 1.269 ± 0.074 g/L | Growth rate [8, 11]: 0.519 ± 0.010 h⁻¹ | Lag time [8, 11]: 12 h | Max cell concentration [8, 11]: 1.335 ± 0.074 g/L | Time after inoculation at which significant growth was exhibited ([8]; […], same conditions): 12 h
